In patent EP0414391B1, “Aminoketone derivatives and use thereof” (MITSUI TOATSU CHEMICALS, Inc., priority 1989, dated 1991):
Structures can show the parent of a compound that is named as a salt. Where two headings read alike, the source gives them in different places.

Columns and labels:
[1] = system: decerebrate rigidity induced by radio frequency lesions of rat brains; experiment: Decerebrate rigidity remission action (radio frequency lesion, method of Ono et al); format: in vivo, Wistar male rat; conditions: iv, intravenously administered at 3 mg/kg, tension before the administration = 100%
Text: Using the method proposed by Ono et al [H. Ono et al, Gen. Pharmacol., 18, 57 (1987)], rigidity remission action of the aminoketone derivatives of the invention for the decerebrate rigidity induced by radio frequency lesions of rat brains was investigated.
Each Wistar male rat (body weight: 300-400 g) was anesthetized with ether and then fixed on a stereotaxic apparatus. In accordance with the Pellegrino's stereo-taxic brain atlas, the electrodes of a lesion generator (manufactured by Radionics Company) were punctuated to AP: 0, L:±1.5, V:-3. […] The rigidified rat was fixed in the abdominal position and one of the hind legs was pushed 4-5 mm toward the head repeatedly once a minute. The tension of each extension reflex of the extensor of the hind limbs was recorded. Assuming that the tension before the administration be 100%, the rate of rigidity inhibition as expressed in terms of percentage: [formula]
(§1) The test compounds were intravenously administered at 3 mg/kg.

[2] = system: Tonic extension of the hind limbs; experiment: Antiepileptic action (pentetrazole-induced tonic extension of the hind limbs); format: in vivo, ddy Male mice; conditions: Mus musculus, ip, 0.5 h, read-out: Antiepileptic action ED₅₀
Procedure: ddy Male mice (body weights: 25-30 g) were used. Test compounds were intraperitoneally administered. Thirty minutes later, pentetrazole (PTZ) was intraperitoneally administered at 170 mg/kg.
Tonic extension of the hind limbs was observed. [formula]
Effective dose for 50% of antiepileptic action, ED₅₀ (mg/kg) was calculated.

[3] = Central depressant action (spontaneous behavior, revolutionary wheel); set-up: species or system ddy Male mice; conditions: mouse, in vivo, ip; intraperitoneal administration; dose reducing the number of wheel revolutions in 20 minutes by 50%; read-out: Central depressant action ED₅₀
Procedure: Depressant action against spontaneous behavior using a revolutionary wheel was used as an index for central depressant action.
ddy Male mice (body weights: 25-30 g) were used. After intraperitoneal administration of each test compound, the mouse was immediately placed in a revolutionary wheel. The total number of revolutions of the wheel during a 20 minute period immediately after the placement of the mouse inside the wheel was counted.
Doses required to reduce the number of revolutions by 50%, ED₅₀ (mg/kg) were determined.

Acute toxicity = conditions: mouse, in vivo, ip; intraperitoneally administered; alive or dead observed one day later; read-out: LD₅₀
Procedure: ddy Male mice (body weights: 25-30 g) were used. Each test compound was intraperitoneally administered. One day later, the mice were observed whether they were alive or dead.
50% lethal doses, LD₅₀ (mg/kg) were calculated.

[4] = system: flexor reflex of the right anterior tibialis; experiment: Depressing action for the spinal reflex of cat (flexor reflex); format: in vivo, cats; conditions: Felis catus, iv, read-out: Reflex inhibition, %
Procedure: Both male and female cats having a body weight of 2.5-4.0 kg were anesthetized with ether and then fixed in the supine position. In accordance with the method proposed by Shimamoto et al ["Yakurigaku Jisshu (Pharmacological Practice)", Nanzando Co., Ltd. (1960)], profound peroneal nerve-anterior peroneal nerve samples were prepared for the testing of flexor reflex. The flexor reflex of the right anterior tibialis was elicited by electrical stimulation (0.2 Hz, 1 ms, supra maximal voltage) of the central end of the ipsilateral femoral nerve. Under a static tension of 25 g, contractions of the corresponding anterior peroneal nerve were recorded on a polygraph. Assuming that the contraction force before the administration be 100%, the rate of flexor reflex inhibition was expressed in terms of percentage: [formula]
as §1

[5] = system: contraction of the bladder caused by a micturition reflex; experiment: Micturition reflex depression action (bladder balloon, internal pressure); format: in vivo, Wistar male rats; conditions: injected through the common carotid vein, urethane-anesthetized rats, Mean ± S.E., 3 rats
Text: Wistar male rats having a body weight of 300 g were each anesthetized s.c. with 1.5 g/kg of urethane and fixed in the supine position. The hypogastrium was next subjected to median incision so that the bladder was exposed. A short cut was formed in a top part of the bladder, through which a balloon having an internal volume of about 1 mℓ was inserted. A catheter equipped with a three-way cock was connected to the balloon. A syringe was connected to another flow passage of the three-way cock, while a transducer ("Statham P-50", trade name) was connected to the remaining flow passage to permit the measurement of the internal pressure of the bladder.
After the rat was left over for at least 30 minutes after the operation, 0.25-0.5 mℓ of distilled water was injected into the balloon by means of the syringe. Variations in the internal pressure of the bladder, which were developed at that time due to spontaneous movement of the bladder, were recorded on a polygraph ("RM-6000", trade name; manufactured by Nihon Koden K.K.) by way of the transducer.
Each test compound was dissolved in physiological saline and injected through the common carotid vein. Effects of each test compound was expressed in terms of the time required until the disappearance of a contraction of the bladder caused by a micturition reflex.

[6] = intraperitoneally administered 30 minutes before pentetrazole (PTZ) 170 mg/kg i.p.
[7] = intravenously administered at 3 mg/kg, contraction force before the administration = 100%

Structure (SMILES)	inhibition in vivo at 3 mg/kg [1] [%]	ED50 [2, 6] [mg/kg]	ED50 at 20 min [3] [mg/kg]	LD50 at 24 h (Acute toxicity) [mg/kg]	inhibition in vivo at 3 mg/kg [4, 7] [%]	further results
COc1cccc(-c2cc(C(=O)C(C)CN3CCCC3)on2)c1 (centres unmarked) [Example 8]	38	–	–	–	–	–
CC(CN1CCCCC1)C(=O)c1cc(-c2ccccc2)no1.Cl (centres unmarked) [Example 1, 5-(2-methyl-3-piperidinopropionyl)-3-phenylisoxazole Hydrochloride]	40	17	54	170 to 300	–	–
CC(CN1CCCCC1)C(=O)c1cc(Cc2ccccc2)no1.Cl (centres unmarked) [Example 21, 3-Benzyl-5-(2-methyl-3-piperidinopropionyl)isoxazole hydrochloride]	44	–	52	–	–	–
Cc1onc(-c2ccccc2)c1C(=O)C(C)CN1CCCCC1.Cl (centres unmarked) [Example 68, 3-Phenyl-5-methyl-4-(2-methyl-3-piperidinopropionyl)isoxazole hydrochloride]	–	17	–	–	56	–
Cc1ccc(-c2cc(C(=O)C(C)CN3CCCC3)on2)o1 (centres unmarked) [Example 20, hydrochloride]	49	–	49	170 to 300	54	–
CCC(CN1CCCCC1)C(=O)c1cc(-c2ccccc2)no1 (centres unmarked) [Example 29]	53	3	38	300 to 500	70	Time required until disappearance ([5]; Dose 2 mg/kg): 4.9 ± 1.2 min; Time required until disappearance ([5]; Dose 4 mg/kg): 8.6 ± 2.1 min
CCC(CN1CCCC1)C(=O)c1cc(-c2ccccc2)on1 (centres unmarked) [Example 52]	61	–	–	–	–	–
CC(CN1CCCC1)C(=O)c1cc(-c2ccccc2)no1 (centres unmarked) [Example 5]	40	20	44	100 to 170	–	–
CC(CN1CCCCC1)C(=O)c1cc(C(=O)c2ccccc2)no1.Cl (centres unmarked) [Example 22, 3-benzoyl-5-(2-methyl-3-piperidinopropionyl)isoxazole hydrochloride]	41	18	43	–	–	–
CCC(CN1CCCC1)C(=O)c1cc(-c2ccc(C)o2)no1 (centres unmarked) [Example 38]	–	–	–	–	38	–
CCC(CN1CCCC1)C(=O)c1snc2ccccc12 (centres unmarked) [Example 62]	–	–	50	–	–	inhibition in vivo at 3 mg/kg [4]: 90%; ED50 [2]: 23 mg/kg
CCC(CN1CCCC1)C(=O)c1cc(-c2ccccc2)no1 (centres unmarked) [Example 28, 3-Phenyl-5-{2-(1-pyrrolidinylmethyl)butyryl} isoxazole hydrochloride]	62	5	44	100 to 170	79	Time required until disappearance ([5]; Dose 2 mg/kg): 5.6 ± 1.2 min; Time required until disappearance ([5]; Dose 4 mg/kg): 10.1 ± 2.1 min
CCc1ccc(C(=O)C(C)CN2CCCCC2)cc1 (centres unmarked) [Eperisone hydrochloride, eperisone hydrochloride, reference compound]	52	30	33	100 to 170	50	Time required until disappearance ([5]; Dose 2 mg/kg): 2.4 ± 1.2 min; Time required until disappearance ([5]; Dose 4 mg/kg): 5.8 ± 2.1 min
CCCC(CN1CCCC1)C(=O)c1cc(-c2ccccc2)no1 (centres unmarked) [Example 47]	–	–	–	–	–	inhibition in vivo at 3 mg/kg [4]: 45%
CCC(CN1CCCC1)C(=O)c1noc2ccccc12 (centres unmarked) [Example 58, 3-{2-(1-pyrrolidinylmethyl)butyryl} -1,2-benzisoxazole hydrochloride]	–	–	–	–	–	inhibition in vivo at 3 mg/kg [4]: 45%
CC(CN1CCCC1)C(=O)c1snc2ccccc12 (centres unmarked) [Example 61]	–	11	37	–	85	–
CC(C)C(CN1CCCC1)C(=O)c1cc(-c2ccccc2)no1 (centres unmarked) [Example 46, 3-Phenyl-5-{2-(1-pyrrolidinylmethyl)-3-methylbutyryl}-isoxazole hydrochloride]	51	–	–	–	66	–
